target: T1, human D2 receptor (Homo sapiens, UniProt P14416); assay: Binding assay for D2 receptor using [3H] spiperone; conditions: test compound 100 nM, cell membrane expressing human D2 receptor, read-out: Binding inhibitory rate (%) for D2 receptor (100 nM)
T1 construct: expressed in transfected cells
Experimental: In general, there is clinically some correlation between antipsychotic action and antagonistic action for dopamine D2 receptor. The experimental method used herein is a binding assay for D2 receptor which is one of the tests evaluating D2 receptor action in vitro, According to the known method (e.g. Japan, J. Pharmacol., 53, 321-329 (1990)), the above-captioned experiment was carried out using [3H] spiperone, i.e., the binding amount of [3H] spiperone to the preparation cell membrane expressing human D2 receptor was measured, and then the binding inhibitory rate by the test compound (100 nM) was measured/calculated.

T1 sequence (P14416 whole entry): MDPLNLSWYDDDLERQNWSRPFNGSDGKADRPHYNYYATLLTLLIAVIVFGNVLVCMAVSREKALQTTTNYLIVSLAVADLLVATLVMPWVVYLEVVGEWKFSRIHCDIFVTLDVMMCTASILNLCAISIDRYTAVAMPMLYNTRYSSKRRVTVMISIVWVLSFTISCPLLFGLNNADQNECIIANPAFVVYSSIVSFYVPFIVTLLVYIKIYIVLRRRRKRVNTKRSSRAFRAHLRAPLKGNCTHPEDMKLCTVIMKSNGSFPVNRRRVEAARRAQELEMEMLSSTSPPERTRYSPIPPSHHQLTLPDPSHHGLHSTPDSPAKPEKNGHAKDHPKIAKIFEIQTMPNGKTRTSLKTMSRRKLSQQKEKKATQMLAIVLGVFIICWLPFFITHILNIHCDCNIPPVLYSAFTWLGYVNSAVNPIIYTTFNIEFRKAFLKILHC

inhibition at 0.1 µM [%] | SMILES
91 | O=C(/C=C/c1ccccc1F)NC[C@H]1CCCC[C@@H]1CN1CCN(c2nsc3ccccc23)CC1 [Example 44]
90 | O=C(Cc1ccc(Cl)cc1)NC[C@H]1CCCC[C@@H]1CN1CCN(c2nsc3ccccc23)CC1 [Example 37]
91 | O=C(/C=C/c1ccc2c(c1)OCO2)NC[C@H]1CCCC[C@H]1CN1CCN(c2nsc3ccccc23)CC1 [Example 69]
91 | Cc1ccccc1/C=C/C(=O)NC[C@H]1CCCC[C@H]1CN1CCN(c2nsc3ccccc23)CC1 [Example 60]
92 | O=C(/C=C/c1ccccc1[N+](=O)[O-])NC[C@H]1CCCC[C@H]1CN1CCN(c2nsc3ccccc23)CC1 [Example 64]
93 | COc1ccccc1/C=C/C(=O)NC[C@@H]1CCCC[C@@H]1CN1CCN(c2nsc3ccccc23)CC1 [Example 15]
94 | O=C(/C=C/c1ccccc1[N+](=O)[O-])NC[C@@H]1CCCC[C@@H]1CN1CCN(c2nsc3ccccc23)CC1 [Example 16]
90 | O=C(NC[C@H]1CCCC[C@H]1CN1CCN(c2nsc3ccccc23)CC1)c1ccc2c(c1)OCO2 [Example 67]
90 | O=C(/C=C/c1ccccc1[N+](=O)[O-])NC[C@H]1CCCC[C@@H]1CN1CCN(c2nsc3ccccc23)CC1 [Example 33]
91 | COc1ccccc1/C=C/C(=O)NC[C@H]1CCCC[C@@H]1CN1CCN(c2nsc3ccccc23)CC1 [Example 32]
91 | COc1cccc(/C=C/C(=O)NC[C@H]2CCCC[C@H]2CN2CCN(c3nsc4ccccc34)CC2)c1OC [Example 62]
92 | O=C(/C=C/c1ccc2c(c1)OCO2)NC[C@H]1CCC[C@@H]1CN1CCN(c2nsc3ccccc23)CC1 [Example 104]
95 | Cc1cccc(/C=C/C(=O)NC[C@H]2C[C@@H]2CN2CCN(c3nsc4ccccc34)CC2)c1 [Example 137]
92 | COc1cccc(/C=C/C(=O)NC[C@@H]2CCCC[C@@H]2CN2CCN(c3nsc4ccccc34)CC2)c1OC [Example 14]
92 | Cc1cccc(/C=C/C(=O)NC[C@@H]2CCCC[C@@H]2CN2CCN(c3nsc4ccccc34)CC2)c1 [Example 13]
95 | O=C(NC[C@H]1CCC[C@@H]1CN1CCN(c2nsc3ccccc23)CC1)c1ccc2c(c1)OCO2 [Example 102]
92 | O=C(NC[C@H]1CCCC[C@@H]1CN1CCN(c2nsc3ccccc23)CC1)c1ccc2c(c1)OCO2 [Example 36]
91 | O=C(/C=C/c1ccc2c(c1)OCO2)NC[C@@H]1CCCC[C@@H]1CN1CCN(c2nsc3ccccc23)CC1 [Example 21]
91 | COc1ccccc1/C=C/C(=O)NC[C@H]1C[C@@H]1CN1CCN(c2nsc3ccccc23)CC1 [Example 139]

Continued, compound first:

SMILES | inhibition at 0.1 µM [%]
O=C(/C=C/c1ccc2c(c1)OCO2)NC[C@@H]1CCCC[C@H]1CN1CCN(c2nsc3cc(F)ccc23)CC1 [Example 84] | 95
C=C1[C@H](CNC(=O)c2ccc3c(c2)OCO3)[C@H]1CN1CCC(c2noc3cc(F)ccc23)CC1 [Example 192] | 90
O=C(/C=C/c1cccc(Cl)c1)NC[C@@H]1CCCC[C@H]1CN1CCC(c2noc3cc(F)ccc23)CC1 [Example 200] | 92
O=C1C2C3CCC(C3)C2C(=O)N1C[C@@H]1CCCC[C@H]1CN1CCC(c2noc3ccccc23)CC1 (stereo partly drawn) [Example 223] | 94
O=C(Cc1ccc(Cl)cc1)NC[C@@H]1CCCC[C@H]1CN1CCC(c2n[nH]c3cc(F)ccc23)CC1 [Example 243] | 94
O=C(NC[C@@H]1CCCC[C@H]1CN1CCC(c2noc3cc(F)ccc23)CC1)c1ccc2c(c1)OCO2 [Example 221] | 93
C=C1[C@H](CNS(=O)(=O)c2cccc(-c3ccccc3)c2)[C@H]1CN1CCC(c2noc3cc(F)ccc23)CC1 [Example 190] | 92
COc1ccc(OC)c(S(=O)(=O)NC[C@@H]2CCCC[C@H]2CN2CCC(c3n[nH]c4cc(F)ccc34)CC2)c1 [Example 241] | 95
O=C(NC[C@@H]1CCCC[C@H]1CN1CCC(c2n[nH]c3cc(F)ccc23)CC1)c1ccc2c(c1)OCO2 [Example 242] | 95
O=C(NC[C@@H]1CCCC[C@H]1CN1CCN(c2nsc3cc(F)ccc23)CC1)c1ccc2c(c1)OCO2 [Example 82] | 94
O=C(/C=C/c1ccccc1[N+](=O)[O-])NC[C@@H]1CCCC[C@H]1CN1CCC(c2n[nH]c3cc(F)ccc23)CC1 [Example 239] | 95
O=S(=O)(NC[C@@H]1CCCC[C@H]1CN1CCC(c2n[nH]c3cc(F)ccc23)CC1)c1cccc(-c2ccccc2)c1 [Example 240] | 85
C=C1[C@H](CNC(=O)/C=C/c2ccccc2C)[C@H]1CN1CCC(c2noc3cc(F)ccc23)CC1 [Example 185] | 92
O=C1C2C3CCC(C3)C2C(=O)N1C[C@@H]1CCCC[C@H]1CN1CCN(c2nsc3cc(F)ccc23)CC1 (stereo partly drawn) [Example 85] | 91
O=C(/C=C/c1ccc2c(c1)OCO2)NC[C@@H]1CCCC[C@H]1CN1CCC(c2noc3cc(F)ccc23)CC1 [Example 222] | 93
O=C(NC[C@H]1CCC[C@@H]1CN1CCN(c2nsc3ccccc23)CC1)c1cccc(Oc2ccccc2)c1 [Example 87] | 93
COc1ccc(OC)c(S(=O)(=O)NC[C@H]2CCC[C@@H]2CN2CCN(c3nsc4ccccc34)CC2)c1 [Example 101] | 94
O=S(=O)(NC[C@H]1CCC[C@@H]1CN1CCN(c2nsc3ccccc23)CC1)c1cccc(-c2ccccc2)c1 [Example 100] | 91
O=C1C2C3CCC(C3)C2C(=O)N1C[C@@H]1CCCC[C@H]1CN1CCC(c2noc3ccc(F)cc23)CC1 (stereo partly drawn) [Example 225] | 94

tested on: methamphetamine-induced movement of the rat; assay: Anti-methamphetamine test (movement measured with Supermex); format: in vivo; conditions: male rat, intraperitoneal, 30 min before methamphetamine 1 mg/kg i.p.; movement measured for 90 minutes; dose for 50% inhibition; read-out: Antidopaminergic action ED50
Experimental: The anti-methamphetamine test which is a typical in vivo test for evaluating antipsychotic action in the clinical study was carried out as follows. The test substance was intraperitoneally administered to a male rat, and 30 minutes later methamphetamine (1 mg/kg) was intraperitoneally administered to the male rat. Ten minutes after completing the administrations, the movement of the rat was measured with Supermex for 90 minutes, and the dose for 50% inhibition: ED50 value was calculated.

SMILES | ED50 [mg/kg]
O=C(/C=C/c1cccc(Cl)c1)NC[C@@H]1CCCC[C@H]1CN1CCC(c2noc3cc(F)ccc23)CC1 [Example 200] | 0.24
O=C(NC[C@H]1CCC[C@@H]1CN1CCN(c2nsc3ccccc23)CC1)c1cccc(Oc2ccccc2)c1 [Example 87] | 4.5

tested on: not listed separately; assay: Cataleptic action (pole test); conditions: in vivo, ip; male rat, intraperitoneal, one hour after administration; dose inducing catalepsy in 50% of the rats
Experimental: The cataleptic action which is a typical central nervous system side-effect of antipsychotic agents in the clinical study was evaluated as follows. The test substance was intraperitoneally administered to a male rat. One hour later, the rat was made to hold on a pole three times which is horizontally set at a height of 9 cm. When the rat retained the unnatural stretched pose for 30 seconds even one time out of three times, the rat was evaluated as cataleptic positive. The dose for inducing 50% the rats to the catalepsy: ED50 value was calculated.

SMILES | ED50 at 1 h [mg/kg]
O=C(/C=C/c1cccc(Cl)c1)NC[C@@H]1CCCC[C@H]1CN1CCC(c2noc3cc(F)ccc23)CC1 [Example 200] | > 7.2
O=C(NC[C@H]1CCC[C@@H]1CN1CCN(c2nsc3ccccc23)CC1)c1cccc(Oc2ccccc2)c1 [Example 87] | > 135

Reference: US20110003994A1, “CYCLOALKANE DERIVATIVE” (Dainippon Sumitomo Pharma Co., Ltd., priority 2009, published 2011)
